Reference: patent US9409892B2, “4-hydroxy-isoquinoline compounds as HIF hydroxylase inhibitors” (FIBROGEN, INC., priority 2012, dated 2016)

Assays:
PHD2 (EGLN1) = PHD2 (EGLN1) (Homo sapiens (Human), UniProt Q9GZT9); assay: HIF-PH assay (14CO2 capture), PHD2 enzyme inhibition; type: biochemical; details: Table 1; individual measurement; read-out: IC50 (μM) PHD2
Text: (§1) Ketoglutaric acid α-[1-^14C]-sodium salt, alpha-ketoglutaric acid sodium salt, and HPLC purified peptide may be obtained from commercial sources, e.g., Perkin-Elmer (Wellesley Mass.), Sigma-Aldrich, and SynPep Corp. (Dublin Calif.), respectively. Peptides for use in the assay may be fragments of HIFα as described above or as disclosed in International Publication WO 2005/118836, incorporated by reference herein. HIF-pH, e.g., PHD1 (EGLN2) or PHD2 (EGLN1), can be expressed in, e.g., insect Hi5 cells, and partially purified, e.g., through a SP ion exchange chromatography column. Enzyme activity is determined by capturing ^14CO2 using an assay described by Kivirikko and Myllyla (1982, Methods Enzymol. 82:245-304). Assay reactions contain 50 mM HEPES (pH 7.4), 100 μM α-ketoglutaric acid sodium salt, 0.30 mCi/mL ketoglutaric acid α-[1-^14C]-sodium salt, 40 μM FeSO4, 1 mM ascorbate, 1541.8 units/mL Catalase, with or without 50 μM peptide substrate and various concentrations of compound of the invention. Reactions are initiated by addition of HIF-PH enzyme.
(§2) The peptide-dependent percent turnover is calculated by subtracting percent turnover in the absence of peptide from percent turnover in the presence of substrate peptide. Percent inhibition and IC50 are calculated using peptide-dependent percent turnover at given inhibitor concentrations. Calculation of IC50 values for each inhibitor is conducted using GraFit software (Erithacus Software Ltd., Surrey UK).
(§3) The PHD2/PHD1 is the ratio of the IC50 of the compound for each enzyme.

PHD1 (EGLN2) = PHD1 (EGLN2) (Homo sapiens (Human), UniProt Q96KS0); assay: HIF-PH assay (14CO2 capture), PHD1 enzyme inhibition; type: biochemical; details: for IC50: individual measurement, read-out: IC50 (μM) PHD1
Text: as §1, §2, §3

[1] = Table 1, ratio of the IC50 of the compound for each enzyme
[2] = Table 2 comparative data, IC50 PHD2/IC50 PHD1

Sequence of PHD2 (EGLN1) (Q9GZT9 whole entry, the tested form may be a part): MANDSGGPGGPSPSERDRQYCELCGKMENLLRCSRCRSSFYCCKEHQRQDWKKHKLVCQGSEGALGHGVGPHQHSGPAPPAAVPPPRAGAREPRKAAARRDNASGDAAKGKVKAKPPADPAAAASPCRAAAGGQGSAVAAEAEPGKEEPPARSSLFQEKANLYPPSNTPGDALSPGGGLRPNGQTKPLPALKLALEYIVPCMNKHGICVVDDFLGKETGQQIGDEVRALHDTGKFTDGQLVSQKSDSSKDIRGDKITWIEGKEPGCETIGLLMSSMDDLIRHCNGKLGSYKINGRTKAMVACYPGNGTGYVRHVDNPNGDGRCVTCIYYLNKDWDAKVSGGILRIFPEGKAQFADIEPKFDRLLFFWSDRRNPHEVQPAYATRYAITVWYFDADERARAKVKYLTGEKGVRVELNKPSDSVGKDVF
Sequence of PHD1 (EGLN2) (Q96KS0 whole entry): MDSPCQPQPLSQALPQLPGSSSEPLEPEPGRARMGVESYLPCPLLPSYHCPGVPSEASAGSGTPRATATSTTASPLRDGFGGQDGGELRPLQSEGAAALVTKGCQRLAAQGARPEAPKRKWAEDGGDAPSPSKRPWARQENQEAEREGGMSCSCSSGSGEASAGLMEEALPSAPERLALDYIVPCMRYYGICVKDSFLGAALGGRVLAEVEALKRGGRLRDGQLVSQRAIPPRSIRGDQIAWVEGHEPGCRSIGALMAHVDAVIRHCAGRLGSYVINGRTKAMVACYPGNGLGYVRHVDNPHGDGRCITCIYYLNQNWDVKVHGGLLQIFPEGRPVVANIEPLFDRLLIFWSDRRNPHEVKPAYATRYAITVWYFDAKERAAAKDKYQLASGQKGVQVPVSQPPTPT

SMILES | IC50 (PHD2 (EGLN1)) [µM] | IC50 (PHD1 (EGLN2); Table 1) [µM] | PHD2/PHD1 (PHD1 (EGLN2); [1]) | PHD2/PHD1 (PHD1 (EGLN2); [2])
N#Cc1nc(C(=O)N[C@H]2CCCC[C@H]2C(=O)O)c(O)c2ccc(Oc3ccccc3)cc12 (relative stereo) [Compound 32, cis-2-(1-Cyano-4-hydroxy-7-phenoxyisoquinoline-3-carboxamido)cyclohexanecarboxylic acid] | 182 | 27.9 | 6 | 
N#Cc1nc(C(=O)N[C@H]2CCC[C@H]2C(=O)O)c(O)c2ccc(Oc3ccccc3)cc12 (relative stereo) [Compound 33, cis-2-[(1-Cyano-4-hydroxy-7-phenoxy-isoquinoline-3-carbonyl)-amino]-cyclopentanecarboxylic acid] | 94.8 | 16.9 | 6 | 
O=C(O)CCNC(=O)c1ncc2cc(Oc3ccccc3)ccc2c1O [Compound 1, 3-[(4-Hydroxy-7-phenoxy-isoquinoline-3-carbonyl)-amino]propionic acid] | 10.3 | 0.92 | 11 | 11
CC(C)(CNC(=O)c1ncc2cc(Oc3ccccc3)ccc2c1O)C(=O)O [Compound 2, 3-[(4-Hydroxy-7-phenoxy-isoquinoline-3-carbonyl)-amino]-2,2-dimethyl-propionic acid] | 46.7 | 5.5 | 8 | 
O=C(NC[C@H](O)C(=O)O)c1ncc2cc(Oc3ccccc3)ccc2c1O [Compound 3, 2-(S)-Hydroxy-3-[(4-hydroxy-7-phenoxy-isoquinoline-3-carbonyl)-amino]propionic acid] | 15.6 | 1.08 | 14 | 14
O=C(O)CCCNC(=O)c1ncc2cc(Oc3ccccc3)ccc2c1O [Compound 4, 4-[(4-Hydroxy-7-phenoxy-isoquinoline-3-carbonyl)-amino]-butyric acid] | 7 | 1.17 | 6 | 
O=C(O)CCCCNC(=O)c1ncc2cc(Oc3ccccc3)ccc2c1O [Compound 5, 5-[(4-Hydroxy-7-phenoxy-isoquinoline-3-carbonyl)-amino]-pentanoic acid] | 61.7 | 2.75 | 22 | 
N#Cc1nc(C(=O)N[C@H](CC(=O)O)Cc2ccccc2)c(O)c2ccc(Oc3ccccc3)cc12 [Compound 67, (S)-3-[(1-Cyano-4-hydroxy-7-phenoxy-isoquinoline-3-carbonyl)-amino]-4-phenyl-butyric acid] |  | 3.43 |  | 
N#Cc1nc(C(=O)N[C@@H](CC(=O)O)Cc2ccccc2)c(O)c2ccc(Oc3ccccc3)cc12 [Compound 68, (R)-3-[(1-Cyano-4-hydroxy-7-phenoxy-isoquinoline-3-carbonyl)-amino]-4-phenyl-butyric acid] |  | 2.27 |  | 
CC(C)(CC(=O)O)NC(=O)c1nc(C#N)c2cc(Oc3ccccc3)ccc2c1O [Compound 82, 3-[(1-Cyano-4-hydroxy-7-phenoxy-isoquinoline-3-carbonyl)-amino]-3-methyl-butyric acid] |  |  | 23 | 
O=C(O)CNC(=O)c1ncc2cc(Oc3ccccc3)ccc2c1O [U.S. Pat. No. 7,323,475; Example D-7, 2-[(4-Hydroxy-7-phenoxy-isoquinoline-3-carbonyl)-amino]-acetic acid, reference compound] |  |  |  | 1.5
O=C(O)CNC(=O)c1ncc2cc(Oc3cccnc3)ccc2c1O [U.S. Pat. No. 7,323,475; Example D-67, 2-{[4-Hydroxy-7-(pyridin-3-yloxy)-isoquinoline-3-carbonyl]-amino}-acetic acid, reference compound] |  |  |  | 3
N#Cc1nc(C(=O)NCC(=O)O)c(O)c2ccc(Oc3ccccc3)cc12 [U.S. Pat. No. 7,928,120; Example 3, 2-[(1-Cyano-4-hydroxy-7-phenoxy-isoquinoline-3-carbonyl)-amino]-acetic acid, reference compound] |  |  |  | 0.4
